Laboratory results as given in publication PMC9574860, “Chemical Toolkit for PARK7: Potent, Selective, and High-Throughput” (Journal of Medicinal Chemistry, 2022).
Entries after “also recorded” stand apart in the source; their conditions may differ. Read-outs that look alike come from different tables or passages of the source.

Legend:
UCHL1 = biological target: T1, UCHL1 (Homo sapiens, UniProt P09936); assay: UCHL1 activity assay (Ub-Rho-Morpholine or Ub-AMC substrate); type: biochemical; settings: UCHL1 1 nM, 1 h preincubation
T1 sequence (P09936 1-223): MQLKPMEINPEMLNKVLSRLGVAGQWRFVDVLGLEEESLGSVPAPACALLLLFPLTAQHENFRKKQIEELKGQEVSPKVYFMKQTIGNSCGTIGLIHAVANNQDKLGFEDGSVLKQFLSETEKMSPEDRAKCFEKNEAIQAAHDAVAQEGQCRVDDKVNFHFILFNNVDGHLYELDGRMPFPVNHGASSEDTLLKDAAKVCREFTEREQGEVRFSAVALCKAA

DUBs = assay: DUB activity profiling in HEK293T cell lysate with general DUB probe Rho-Ub-PA; type: biochemical; settings: compound 5 μM 1 h 37 °C, then Rho-Ub-PA 30 min, Figure S5
Protocol: Due to the structural similarity of PARK7 inhibitor JYQ-88 and UCHL1 inhibitor 8RK64 and the fact that many cyanimide-containing compounds have been identified as DUB inhibitors,[35],[37] we investigated the inhibitory potential of JYQ-88 and JYQ-92 toward DUBs. After treating the HEK293T cell lysate with JYQ-88 and JYQ-92, along with UCHL1 inhibitors, 6RK73 and 8RK64 as controls,[38] the remaining activity of DUBs was determined using the general DUB probe Rho-Ub-PA (Figure S5).[39]
Figure S5. Fluorescence labeling of DUBs to investigate their remaining activity by Rh-Ub-
PA after the treatment with PARK7 inhibitor JYQ-88 and probe JYQ-92. UCHL1 inhibitors,
6RK73 and 8RK64, were used as a control. HEK293T cell lysate was treated with 5 μM final
MOPS SDS running buffer (Novex, NuPAGE) and visualized by fluorescence scanning on a
Typhoon FLA 9500 (GE Healthcare Life Sciences) using a Rhodamine channel (λex/em
(1 picture or pasted object on this page, not shown here)

PARK7 [1] = biological target: T2, PARK7 (Homo sapiens, UniProt Q99497); assay: DiFMUAc PARK7 activity assay; type: biochemical; parameters: GST (N, cleaved yes); made in house; host or cells: E. coli BL21(DE3) Rosetta2
T2 sequence (Q99497 1-189): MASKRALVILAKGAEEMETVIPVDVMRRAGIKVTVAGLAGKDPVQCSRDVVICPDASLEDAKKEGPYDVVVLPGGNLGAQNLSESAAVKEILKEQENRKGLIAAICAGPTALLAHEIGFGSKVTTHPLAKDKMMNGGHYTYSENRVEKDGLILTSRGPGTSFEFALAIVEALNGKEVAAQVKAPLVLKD

PARK7 [2] = biological target: T2, PARK7; assay: FP assay with Rhodamine110 probe JYQ-107 (IC50 and hit validation); type: binding; parameters: GST (N, cleaved yes); made in house; host or cells: E. coli BL21(DE3) Rosetta2; settings: PARK7 0.2 μM, 1 h preincubation, JYQ-107 20 nM

## N#CN1CC[C@@H](C(=O)Nc2nc3c(s2)CN(C(=O)CN=[N+]=[N-])CC3)C1 [JYQ-88, (R)-N-(5-(2-Azidoacetyl)-4,5,6,7-tetrahydrothiazolo[5,4-c]pyridin-2-yl)-1-cyanopyrrolidine-3carboxamide]
UCHL1; Figure 3E, read-out: UCHL1 IC50
  IC50: 11.1 µM
UCHL1; read-out: UbRhoMP assay UCHL1 IC50
  IC50: 11.2 µM
DUBs
  Effect on remaining DUB activity (Rho-Ub-PA labeled bands): no influence on DUB activity; also recorded: without showing any effect
PARK7 [1]; DiFMUAc assay, PARK7 0.1 μM, 1 h preincubation, DiFMUAc 300 μM
  IC50: 130 nM
PARK7 [1]; PARK7 IC50 (DiFMUAc) vs UCHL1 IC50
  Fold higher potency toward PARK7 than UCHL1: 85 fold
PARK7 [2]
  IC50: 240 nM
